# System: 843126-344-R-J1-PDC complex spheroid viability
# Test: Anticancer human tumor 843126-344-R-J1-PDC patient-derived melanoma cell line growth inhibition [POLQ]
# Conditions: for IC50: curve of first compound; for viability, T/C: stronger effect = lower value
# Outline: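 PDC + HUVEC + MSC complex spheroids; POLQ inhibitors ± partner drugs; top conc. at/near clinical Cmax, else 10 microM (SN-38 1 microM), half-log dilutions; 37 degrees C, 5% CO2.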
# [1] = second compound 0.0316 µM, first compound 0.0316 µM
# [2] = second compound 0.0316 µM, first compound 0.1 µM
# [3] = second compound 0.0316 µM, first compound 0.316 µM
# [4] = second compound 0.0316 µM, first compound 1 µM
# [5] = second compound 0.0316 µM, first compound 3.16 µM
# [6] = second compound 0.0316 µM, first compound 10 µM
# [7] = second compound 0.1 µM, first compound 0.0316 µM
# [8] = second compound 0.1 µM, first compound 0.1 µM
# [9] = second compound 0.1 µM, first compound 0.316 µM
# [10] = second compound 0.1 µM, first compound 1 µM
# [11] = second compound 0.1 µM, first compound 3.16 µM
# [12] = second compound 0.1 µM, first compound 10 µM
# [13] = second compound 0.316 µM, first compound 0.0316 µM
# [14] = second compound 0.316 µM, first compound 0.1 µM
# [15] = second compound 0.316 µM, first compound 0.316 µM
# [16] = second compound 0.316 µM, first compound 1 µM
# [17] = second compound 0.316 µM, first compound 3.16 µM
# [18] = second compound 0.316 µM, first compound 10 µM
# [19] = second compound 1 µM, first compound 0.0316 µM
# [20] = second compound 1 µM, first compound 0.1 µM
# [21] = second compound 1 µM, first compound 0.316 µM
# [22] = second compound 1 µM, first compound 1 µM
# [23] = second compound 1 µM, first compound 3.16 µM
# [24] = second compound 1 µM, first compound 10 µM
# [25] = second compound 3.16 µM, first compound 0.0316 µM
# [26] = second compound 3.16 µM, first compound 0.1 µM
# [27] = second compound 3.16 µM, first compound 0.316 µM
# [28] = second compound 3.16 µM, first compound 1 µM
# [29] = second compound 3.16 µM, first compound 3.16 µM
# [30] = second compound 3.16 µM, first compound 10 µM
# [31] = second compound 10 µM, first compound 0.0316 µM
# [32] = second compound 10 µM, first compound 0.1 µM
# [33] = second compound 10 µM, first compound 0.316 µM
# [34] = second compound 10 µM, first compound 1 µM
# [35] = second compound 10 µM, first compound 3.16 µM
# [36] = second compound 10 µM, first compound 10 µM
# 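For viability, T/C in this document: spheroids exposed to drugs for seven days before readout.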
smiles,measurement,setting,value
CCc1cc2c(N3CCc4c(cc(Cn5ccnc5)cc4-c4cn(C)nc4C(F)(F)F)C3=O)cc(C)nc2c(OC)n1 + COC1C(OC(N)=O)C(O)C(Oc2ccc3c(O)c(NC(=O)c4ccc(O)c(CC=C(C)C)c4)c(=O)oc3c2C)OC1(C)C,IC50,second compound 0.0316 µM,> 10 µM
same,IC50,second compound 0.1 µM,8.91 µM
same,IC50,second compound 0.316 µM,> 10 µM
same,IC50,second compound 1 µM,> 10 µM
same,IC50,second compound 3.16 µM,> 10 µM
same,IC50,second compound 10 µM,> 10 µM
same,"viability, T/C",[1],103%
same,"viability, T/C",[2],78%
same,"viability, T/C",[3],89.6%
same,"viability, T/C",[4],74.5%
same,"viability, T/C",[5],74.3%
same,"viability, T/C",[6],59.8%
same,"viability, T/C",[7],90.6%
same,"viability, T/C",[8],87.1%
same,"viability, T/C",[9],89%
same,"viability, T/C",[10],81.1%
same,"viability, T/C",[11],64.6%
same,"viability, T/C",[12],48.4%
same,"viability, T/C",[13],96.2%
same,"viability, T/C",[14],80.6%
same,"viability, T/C",[15],72.4%
same,"viability, T/C",[16],68.2%
same,"viability, T/C",[17],74.2%
same,"viability, T/C",[18],56.4%
same,"viability, T/C",[19],76.9%
same,"viability, T/C",[20],67.4%
same,"viability, T/C",[21],69.4%
same,"viability, T/C",[22],68.5%
same,"viability, T/C",[23],72.4%
same,"viability, T/C",[24],71.3%
same,"viability, T/C",[25],91.1%
same,"viability, T/C",[26],77.4%
same,"viability, T/C",[27],76.9%
same,"viability, T/C",[28],62.5%
same,"viability, T/C",[29],72.7%
same,"viability, T/C",[30],61.8%
same,"viability, T/C",[31],82.1%
same,"viability, T/C",[32],96.1%
same,"viability, T/C",[33],84.2%
same,"viability, T/C",[34],66.2%
same,"viability, T/C",[35],58.5%
same,"viability, T/C",[36],62.6%
CCc1cc2c(N3CCc4c(cc(Cn5ccnc5)cc4-c4cn(C)nc4C(F)(F)F)C3=O)ccnc2c(OC)n1 + COC1C(OC(N)=O)C(O)C(Oc2ccc3c(O)c(NC(=O)c4ccc(O)c(CC=C(C)C)c4)c(=O)oc3c2C)OC1(C)C,IC50,second compound 0.0316 µM,> 10 µM
same,IC50,second compound 0.1 µM,8.32 µM
same,IC50,second compound 0.316 µM,> 10 µM
same,IC50,second compound 1 µM,> 10 µM
same,IC50,second compound 3.16 µM,> 10 µM
same,IC50,second compound 10 µM,> 10 µM
same,"viability, T/C",[1],94.1%
same,"viability, T/C",[2],88.3%
same,"viability, T/C",[3],87.3%
same,"viability, T/C",[4],78.4%
same,"viability, T/C",[5],62.2%
same,"viability, T/C",[6],60.8%
same,"viability, T/C",[7],82%
same,"viability, T/C",[8],99.8%
same,"viability, T/C",[9],92.2%
same,"viability, T/C",[10],70.4%
same,"viability, T/C",[11],63%
same,"viability, T/C",[12],46.5%
same,"viability, T/C",[13],99.5%
same,"viability, T/C",[14],78%
same,"viability, T/C",[15],78%
same,"viability, T/C",[16],73.1%
same,"viability, T/C",[17],76.6%
same,"viability, T/C",[18],62%
same,"viability, T/C",[19],84.5%
same,"viability, T/C",[20],93.8%
same,"viability, T/C",[21],78.2%
same,"viability, T/C",[22],80.6%
same,"viability, T/C",[23],65%
same,"viability, T/C",[24],57.2%
same,"viability, T/C",[25],78.4%
same,"viability, T/C",[26],99.7%
same,"viability, T/C",[27],87.2%
same,"viability, T/C",[28],72.6%
same,"viability, T/C",[29],67.6%
same,"viability, T/C",[30],61%
same,"viability, T/C",[31],80.8%
same,"viability, T/C",[32],79.7%
same,"viability, T/C",[33],79.5%
same,"viability, T/C",[34],78.5%
same,"viability, T/C",[35],61.7%
same,"viability, T/C",[36],66.1%
COc1cc2cc(C(=O)CCC(=O)O)sc2cc1OC + COC1C(OC(N)=O)C(O)C(Oc2ccc3c(O)c(NC(=O)c4ccc(O)c(CC=C(C)C)c4)c(=O)oc3c2C)OC1(C)C,IC50,second compound 0.0316 µM,> 10 µM
same,IC50,second compound 0.1 µM,> 10 µM
same,IC50,second compound 0.316 µM,> 10 µM
same,IC50,second compound 1 µM,> 10 µM
same,IC50,second compound 3.16 µM,> 10 µM
same,IC50,second compound 10 µM,> 10 µM
same,"viability, T/C",[1],93.2%
same,"viability, T/C",[2],82.8%
same,"viability, T/C",[3],99.1%
same,"viability, T/C",[4],89.6%
same,"viability, T/C",[5],94.1%
same,"viability, T/C",[6],87.2%
same,"viability, T/C",[7],97.5%
same,"viability, T/C",[8],112%
same,"viability, T/C",[9],103%
same,"viability, T/C",[10],91%
same,"viability, T/C",[11],108%
same,"viability, T/C",[12],94.4%
same,"viability, T/C",[13],91.8%
same,"viability, T/C",[14],104%
same,"viability, T/C",[15],121%
same,"viability, T/C",[16],117%
same,"viability, T/C",[17],89%
same,"viability, T/C",[18],84.4%
same,"viability, T/C",[19],96.1%
same,"viability, T/C",[20],92.7%
same,"viability, T/C",[21],87.3%
same,"viability, T/C",[22],85.6%
same,"viability, T/C",[23],96%
same,"viability, T/C",[24],87.2%
same,"viability, T/C",[25],97.3%
same,"viability, T/C",[26],93.5%
same,"viability, T/C",[27],81.4%
same,"viability, T/C",[28],108%
same,"viability, T/C",[29],97.7%
same,"viability, T/C",[30],109%
same,"viability, T/C",[31],98.8%
same,"viability, T/C",[32],92.7%
same,"viability, T/C",[33],97.8%
same,"viability, T/C",[34],110%
same,"viability, T/C",[35],107%
same,"viability, T/C",[36],90.9%
O=C(Nc1ccc(O)c(NS(=O)(=O)c2ccc(F)cc2)c1)c1ccc(-c2ccccc2)cc1 + COC1C(OC(N)=O)C(O)C(Oc2ccc3c(O)c(NC(=O)c4ccc(O)c(CC=C(C)C)c4)c(=O)oc3c2C)OC1(C)C,IC50,second compound 0.0316 µM,> 10 µM
same,IC50,second compound 0.1 µM,> 10 µM
same,IC50,second compound 0.316 µM,> 10 µM
same,IC50,second compound 1 µM,> 10 µM
same,IC50,second compound 3.16 µM,> 10 µM
same,IC50,second compound 10 µM,> 10 µM
same,"viability, T/C",[1],118%
same,"viability, T/C",[2],105%
same,"viability, T/C",[3],100%
same,"viability, T/C",[4],119%
same,"viability, T/C",[5],99%
same,"viability, T/C",[6],69.4%
same,"viability, T/C",[7],94.3%
same,"viability, T/C",[8],93.8%
same,"viability, T/C",[9],119%
same,"viability, T/C",[10],99.6%
same,"viability, T/C",[11],87.9%
same,"viability, T/C",[12],61.9%
same,"viability, T/C",[13],92.8%
same,"viability, T/C",[14],98.3%
same,"viability, T/C",[15],113%
same,"viability, T/C",[16],95.5%
same,"viability, T/C",[17],91.8%
same,"viability, T/C",[18],73.1%
same,"viability, T/C",[19],90.9%
same,"viability, T/C",[20],85.3%
same,"viability, T/C",[21],91.9%
same,"viability, T/C",[22],98.9%
same,"viability, T/C",[23],112%
same,"viability, T/C",[24],89.3%
same,"viability, T/C",[25],95.5%
same,"viability, T/C",[26],93.9%
same,"viability, T/C",[27],92.9%
same,"viability, T/C",[28],93.8%
same,"viability, T/C",[29],89.4%
same,"viability, T/C",[30],76.3%
same,"viability, T/C",[31],82.6%
same,"viability, T/C",[32],78.8%
same,"viability, T/C",[33],97.1%
same,"viability, T/C",[34],94.5%
same,"viability, T/C",[35],86.8%
same,"viability, T/C",[36],79.7%

# — PubChem BioAssay AID1963837 (Molecular Pharmacology Branch, DTP, NCI, 2024)
